Results on 38 compounds are retold here after US11918568B2, “Fused ring compound having urea structure” (DAIICHI SANKYO COMPANY, LIMITED, priority 2018, dated 2024).

Structures are written as SMILES.

In this assay the target is human NAMPT enzyme (Homo sapiens (Human), UniProt P43490). In words: NAMPT enzyme activating effect (in vitro cell-free enzyme assay). The assay is classed as biochemical. The conditions noted are these: 2 ng/mL human NAMPT enzyme, 1-h incubation at 25° C., fluorescence of NMN derivative. Here is the method: The NAMPT enzyme assay was conducted in accordance with the method of Formentini et al. […] Hereinafter, the procedures will be briefly described. The NAMPT enzyme reaction was carried out using polypropylene 384 well V shaped black plate (Greiner Bio One International GmbH). […] Then, 22 μL of 88% formic acid was added and the mixture was further incubated for 30 min in the dark. The NAMPT enzyme activity was calculated as the difference between fluorescence intensity (Ex 380 nm/Em 450 nm) from the reaction of a test compound treatment group and fluorescence intensity from control reaction free from the NAMPT enzyme. [NAMPT enzyme activity]=[Fluorescence intensity of the test substance treatment group]−[Mean fluorescence intensity of the control reaction free from the NAMPT enzyme] EC50 value of each compound was calculated from the enzyme activities of the compound at various concentrations by using GraphPad Prism software (GraphPad Software) (Table 1)
Sequence of human NAMPT enzyme (P43490 whole entry): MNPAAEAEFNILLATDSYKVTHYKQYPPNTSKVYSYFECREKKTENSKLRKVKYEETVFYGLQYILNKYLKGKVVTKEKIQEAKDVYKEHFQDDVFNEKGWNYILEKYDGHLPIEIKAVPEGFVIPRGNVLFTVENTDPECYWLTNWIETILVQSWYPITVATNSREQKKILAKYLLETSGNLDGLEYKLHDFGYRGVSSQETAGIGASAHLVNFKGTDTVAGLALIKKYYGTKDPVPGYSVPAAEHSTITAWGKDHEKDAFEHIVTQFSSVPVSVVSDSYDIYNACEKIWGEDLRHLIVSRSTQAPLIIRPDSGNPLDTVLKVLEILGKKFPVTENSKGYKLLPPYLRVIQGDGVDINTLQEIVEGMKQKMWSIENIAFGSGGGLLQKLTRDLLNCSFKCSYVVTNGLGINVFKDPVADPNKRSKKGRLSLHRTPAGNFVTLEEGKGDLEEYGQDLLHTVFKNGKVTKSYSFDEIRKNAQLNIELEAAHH
On to `COc1cccc([C@H]2Oc3cc(NC(=O)NCc4ccncc4)ccc3[C@@H]2C)c1` (relative stereo) [Example 53, N-[(2S*,3S*)-2-(3-Methoxyphenyl)-3-methyl-2,3-dihydro-1-benzofuran-6-yl]-N′-[(pyridin-4-yl)methyl]urea], for which the concentration giving a half-maximal response (EC50) (usually the concentration needed to bring the measured effect to its halfway point) turned out to be 80 nM.

For the compound `CC1(c2nc3ccc(NC(=O)NCc4ccncc4)cc3o2)CC1` [Example 3, N-[2-(1-Methylcyclopropyl)-1,3-benzoxazol-6-yl]-N′-[(pyridin-4-yl)methyl]urea], the midpoint of the response, the EC50, lay at 150 nM.

In turn, `Cn1cc(-c2nc3ccc(NC(=O)NCc4ccncc4)cc3o2)cn1` [Example 4, N-[2-(1-Methyl-1H-pyrazol-4-yl)-1,3-benzoxazol-6-yl]-N′-[(pyridin-4-yl)methyl]urea] had an EC50 of 980 nM.

As for `O=C(NCc1cnco1)Nc1ccc2nc(-c3ccccc3)oc2c1` [Example 5, N-[(1,3-Oxazol-5-yl)methyl]-N′-(2-phenyl-1,3-benzoxazol-6-yl)urea], a half-maximal effect (EC50) was put at 110 nM.

The compound `O=C(NCc1ccncc1)Nc1cc2oc(-c3ccccc3)nc2cc1F` [Example 6, N-(5-Fluoro-2-phenyl-1,3-benzoxazol-6-yl)-N′-[(pyridin-4-yl)methyl]urea] showed an EC50 of 10 nM.

The compound `O=C(NCc1cnco1)Nc1ccc2nc(-c3ccccc3)nn2c1` [Example 10, N-[(1,3-Oxazol-5-yl)methyl]-N′-(2-phenyl[1,2,4]triazolo[1,5-a]pyridin-6-yl) urea] gave an EC50 of 140 nM.

As for `CCCCc1ccccc1-c1nc2ccc(NC(=O)NCc3ccncc3)cn2n1` [Example 11, N-[2-(2-Butylphenyl)[1,2,4]triazolo[1,5-a]pyridin-6-yl]-N′-[(pyridin-4-yl)methyl]urea], the midpoint of the response, the EC50, lay at 20 nM.

Turning to `O=C(NCc1ccncc1)Nc1ccc2nc(-c3cccn3-c3ccccc3)nn2c1` [Example 12, N-[2-(1-Phenyl-1H-pyrrol-2-yl)[1,2,4]triazolo[1,5-a]pyridin-6-yl]-N′-[(pyridin-4-yl)methyl]urea], it took 230 nM to reach a half-maximal effect (EC50).

`O=C(NCc1ccncc1)Nc1ccc2nc(-c3ccccc3C(F)(F)F)nn2c1` [Example 14, N-[(Pyridin-4-yl)methyl]-N′-{2-[2-(trifluoromethyl)phenyl][1,2,4]triazolo[1,5-a]pyridin-6-yl}urea]: the EC50 came out at 180 nM.

Turning to `O=C(NCc1ccncc1)Nc1ccc2c(C(=O)N3CCCC3)n(-c3ccccc3)nc2c1` [Example 17, N-[2-Phenyl-3-(pyrrolidine-1-carbonyl)-2H-indazol-6-yl]-N′-[(pyridin-4-yl)methyl]urea], the EC50 worked out at 110 nM.

Compound `CCN(CC)C(=O)c1c2ccc(NC(=O)NCc3ccncc3)cc2nn1-c1ccccc1` [Example 18, N,N-Diethyl-2-phenyl-6-({[(pyridin-4-yl)methyl]carbamoyl}amino)-2H-indazole-3-carboxamide] had a concentration giving a half-maximal response (EC50) of 50 nM.

As for `CCC(=O)N1CC(c2ccccc2)COc2cc(NC(=O)NCc3ccncc3)ccc21` (centres unmarked) [Example 19, N-(3-Phenyl-5-propanoyl-2,3,4,5-tetrahydro-1,5-benzoxazepin-8-yl)-N′-[(pyridin-4-yl)methyl]urea], the EC50 is 380 nM.

With `CN(C)C(=O)c1c(-c2ccccc2)nn2cc(NC(=O)NCc3ccncc3)cc(F)c12` [Example 20, 4-Fluoro-N,N-dimethyl-2-phenyl-6-({[(pyridin-4-yl)methyl]carbamoyl}amino)pyrazolo[1,5-a]pyridine-3-carboxamide], the concentration giving a half-maximal response (EC50) was 160 nM.

As for `CN(C)C(=O)c1c(-c2ccccc2)nn2cc(NC(=O)NCc3ccncc3)ccc12` [Example 23, N,N-Dimethyl-2-phenyl-6-({[(pyridin-4-yl)methyl]carbamoyl}amino)pyrazolo[1,5-a]pyridine-3-carboxamide], the response was half-maximal at 110 nM (EC50).

In turn, `N#Cc1c(-c2ccccc2)nn2cc(NC(=O)NCc3ccncc3)ccc12` [Example 24, N-(3-Cyano-2-phenylpyrazolo[1,5-a]pyridin-6-yl)-N′-[(pyridin-4-yl)methyl]urea] displayed an EC50 of 50 nM.

`Cc1c(-c2ccccc2)nn2cc(NC(=O)NCc3ccncc3)ccc12` [Example 25, N-(3-Methyl-2-phenylpyrazolo[1,5-a]pyridin-6-yl)-N′-[(pyridin-4-yl)methyl]urea] returned an EC50 of 70 nM.

`O=C(NCc1ccncc1)Nc1ccc2cn(-c3ccccc3)nc2c1` [Example 26, N-(2-Phenyl-2H-indazol-6-yl)-N′-[(pyridin-4-yl)methyl]urea] displayed a half-maximal effective concentration (EC50) of 40 nM.

On to `CS(=O)(=O)c1cccc(-n2cc3ccc(NC(=O)NCc4ccncc4)cc3n2)c1` [Example 27, N-{2-[3-(Methanesulfonyl)phenyl]-2H-indazol-6-yl}-N′-[(pyridin-4-yl)methyl]urea], for which the response was half-maximal at 130 nM (EC50).

Turning to `Cc1c2ccc(NC(=O)NCc3ccncc3)cc2nn1-c1ccccc1` [Example 28, N-(3-Methyl-2-phenyl-2H-indazol-6-yl)-N′-[(pyridin-4-yl)methyl]urea], the EC50 was determined as 1000 nM.

Take `COCCOc1ccccc1-n1cc2ccc(NC(=O)NCc3ccncc3)cc2n1` [Example 29, N-{2-[2-(2-Methoxyethoxy)phenyl]-2H-indazol-6-yl}-N′-[(pyridin-4-yl)methyl]urea]: the EC50 is 60 nM.

As to `COc1cccc(-n2cc3ccc(NC(=O)NCc4ccncc4)cc3n2)c1` [Example 30, N-[2-(3-Methoxyphenyl)-2H-indazol-6-yl]-N′-[(pyridin-4-yl)methyl]urea], a half-maximal response (EC50) required 10 nM.

`O=C(NCc1ccncc1)Nc1cnc2cc(-c3ccccc3)nn2c1` [Example 31, N-(2-Phenylpyrazolo[1,5-a]pyrimidin-6-yl)-N′-[(pyridin-4-yl)methyl]urea] showed a 50% effective concentration (EC50) of 430 nM.

Regarding `COc1cc(-n2nc3cc(NC(=O)NCc4ccncc4)ccc3c2C#N)ccn1` [Example 33, N-[3-Cyano-2-(2-methoxypyridin-4-yl)-2H-indazol-6-yl]-N′-[(pyridin-4-yl)methyl]urea], the EC50 is 130 nM.

With `CC(=O)N1c2ccc(NC(=O)NCc3ccncc3)cc2CC1c1ccccc1` (centres unmarked) [Example 34, N-(1-Acetyl-2-phenyl-2,3-dihydro-1H-indol-5-yl)-N′-[(pyridin-4-yl)methyl]urea], the EC50 was 180 nM.

Regarding `COC(=O)Cn1c(-c2ccccc2)cc2cc(NC(=O)NCc3ccncc3)ccc21` [Example 35, Methyl [2-phenyl-5-({[(pyridin-4-yl)methyl]carbamoyl}amino)-1H-indol-1-yl]acetate], the half-maximal effective concentration (EC50) is 560 nM.

Take `COCCn1c(-c2ccccc2)cc2cc(NC(=O)NCc3ccncc3)ccc21` [Example 36, N-[1-(2-Methoxyethyl)-2-phenyl-1H-indol-5-yl]-N′-[(pyridin-4-yl)methyl]urea]: the half-maximal effective concentration (EC50) was 130 nM.

`COCCOc1cccc(-c2cc3cc(NC(=O)NCc4ccncc4)ccc3n2C)c1` [Example 37, N-{2-[3-(2-Methoxyethoxy)phenyl]-1-methyl-1H-indol-5-yl}-N′-[(pyridin-4-yl)methyl]urea] had a half-maximal effective concentration (EC50) of 160 nM.

In turn, `Cn1c(-c2cccc(S(C)(=O)=O)c2)cc2cc(NC(=O)NCc3ccncc3)ccc21` [Example 38, N-{2-[3-(Methanesulfonyl)phenyl]-1-methyl-1H-indol-5-yl}-N′-[(pyridin-4-yl)methyl]urea] displayed a concentration giving a half-maximal response (EC50) of 620 nM.

Compound `Cn1c(-c2ccccn2)cc2cc(NC(=O)NCc3ccncc3)ccc21` [Example 39, N-[1-Methyl-2-(pyridin-2-yl)-1H-indol-5-yl]-N′-[(pyridin-4-yl)methyl]urea] gave a concentration for a half-maximal effect (EC50) of 530 nM.

Compound `O=C(NCc1ccncc1)Nc1ccc2c(c1)cc(-c1ccccc1)n2CC1COCCO1` (centres unmarked) [Example 40, N-{1-[(1,4-Dioxan-2-yl)methyl]-2-phenyl-1H-indol-5-yl}-N′-[(pyridin-4-yl)methyl]urea] returned an EC50 of 190 nM.

`CN(C)C(=O)n1c(-c2ccccc2)cc2cc(NC(=O)NCc3ccncc3)ccc21` [Example 41, N,N-Dimethyl-2-phenyl-5-({[(pyridin-4-yl)methyl]carbamoyl}amino)-1H-indole-1-carboxamide] yielded an EC50 of 290 nM.

In turn, `Cn1c(-c2ccccc2)cc2cc(NC(=O)NCc3ccncc3)ccc21` [Example 42, N-(1-Methyl-2-phenyl-1H-indol-5-yl)-N′-[(pyridin-4-yl)methyl]urea] gave an EC50 of 100 nM.

On to `O=C(NCc1cnco1)Nc1ccc2cn(-c3ccccc3)nc2c1` [Example 43, N-[(1,3-Oxazol-5-yl)methyl]-N′-(2-phenyl-2H-indazol-6-yl)urea], for which the EC50 worked out at 140 nM.

In turn, `O=C(NCc1ccncc1)Nc1ccc2cn(-c3cccc(OC(F)F)c3)nc2c1` [Example 44, N-{2-[3-(Difluoromethoxy)phenyl]-2H-indazol-6-yl}-N′-[(pyridin-4-yl)methyl]urea] yielded a concentration for a half-maximal effect (EC50) of 110 nM.

`COc1cccc(-c2cc3ccc(NC(=O)NCc4ccncc4)cn3n2)c1` [Example 45, N-[2-(3-Methoxyphenyl)pyrazolo[1,5-a]pyridin-6-yl]-N′-[(pyridin-4-yl)methyl]urea] registered an EC50 of 60 nM.

The compound `CC(C)Cn1ncc2cc(NC(=O)NCc3ccncc3)ccc21` [Example 46, N-[1-(2-Methylpropyl)-1H-indazol-5-yl]-N′-[(pyridin-4-yl)methyl]urea] had an EC50 of 790 nM.

Turning to `COCCN1CC(c2ccccc2)Oc2cc(NC(=O)NCc3ccncc3)ccc21` (centres unmarked) [Example 48, N-[4-(2-Methoxyethyl)-2-phenyl-3,4-dihydro-2H-1,4-benzoxazin-7-yl]-N′-[(pyridin-4-yl)methyl]urea], a half-maximal effect (EC50) was put at 650 nM.

`CCNC(=O)N1CC(c2ccccc2Cl)Oc2cc(NC(=O)NCc3ccncc3)ccc21` (centres unmarked) [Example 49, 2-(2-Chlorophenyl)-N-ethyl-7-({[(pyridin-4-yl)methyl]carbamoyl}amino)-2,3-dihydro-4H-1,4-benzoxazine-4-carboxamide] had an EC50 of 130 nM.
